The values below are quoted from earlier work in patent US20170315129A1, “CANCER CELL DETECTION METHOD USING LIVING BODY-DERIVED CELLS OF BIOLOGICAL ORIGIN” (Hirosaki University, priority 2014, published 2017).

The data set concerns mammalian cells. Conditions: kinetics comparable to a radiolabeled D-glucose derivative; cited from earlier work.

Regarding `O=[N+]([O-])c1ccc(N[C@H]2C(O)O[C@H](CO)[C@@H](O)[C@@H]2O)c2nonc12` (stereo partly shown) [2-NBDG], the “uptake into mammalian cells” value is reported as “taken up into mammalian cells through glucose transporters”.
